What was measured:
Male C57BL/6 mice = test: Food intake after intraperitoneal injection in overnight-fasted mice; format: in vivo; conditions: for reduction of food intake by 30 μg/kg versus a 100 μg/kg dose of PYY(3-36): dose response, peripheral injection after overnight fast
Description: (§1) Male C57BL/6 mice (20-30 g) were used for all mouse experiments. Male Wistar rats were used for the rat experiments. Mice or rats were individually housed in IVC cages. Animals were randomised by weight and fasted overnight for 16 hrs before intraperitoneal injection at 9 am. Food intake was measured at 1, 2, 4, 6 and 24 hours post injection. All peptide solutions were prepared freshly the morning of the study and injected as 100 μl. All statistics are calculated using the student's paired t-test.
Mice were injected with PYY(3-36) 100 μg/kg, allo_ILeu^3 PYY(3-36) 100 μg/kg, D_allo_ILeu^3 PYY(3-36) 100 μg/kg or saline (n=10/group) and food intake was measured at time intervals over 24 hours. In the Figure, significance versus saline is indicated by *=p<0.05, **=p<0.01, ***=p<0.001 paired t-test.
(§2) 30 μg/kg or 100 μg/kg of PYY(3-36) or D_allo_ILeu^3 PYY(3-36) was injected after an overnight fast and food intake was measured at time intervals over a period of 24 hours. In the Figures, significance versus saline is indicated by *=p<0.05, **=p<0.01, ***=p<0.001 paired t-test.

Male Wistar rats = test: Food intake after intraperitoneal injection in overnight-fasted rats; format: in vivo; conditions: for reduction of food intake by 30 μg/kg versus a 100 μg/kg dose of PYY(3-36): dose response, peripheral injection after overnight fast
Description: as §1
as §2, with “The experiment was identical to Example 2, except that Wistar rats were used instead of C57BL/6 mice. 30” for “30”

[1] = from 30 μg/kg vs 100 μg/kg comparison

With “D-allo-Ile^3 PYY3-36 [D_allo_ILeu^3 PYY(3-36)]” the “decrease of food intake over the total period 0-4 hours versus native PYY3-36” value (Male C57BL/6 mice; 0-4 hours) was “to a greater extent”, the “cumulative food intake compared to the PYY(3-36) injected group (p, paired t-test)” value (Male C57BL/6 mice; 100 μg/kg each, 0-1 hr) was 0.0138 and the “cumulative food intake compared to the PYY(3-36) injected group (p, paired t-test)” value (Male C57BL/6 mice; 100 μg/kg each, 0-2 hr) was 0.0063. The “cumulative food intake compared to the PYY(3-36) injected group (p, paired t-test)” value (Male C57BL/6 mice; 100 μg/kg each, 0-4 hr) was 0.0003, the “cumulative food intake compared to the PYY(3-36) injected group (p, paired t-test)” value (Male C57BL/6 mice; 100 μg/kg each, 0-6 hr) was 0.0024 and the “food intake over a 24 hr period compared to the PYY(3-36) 100 μg/kg group (p, paired t-test)” value (Male C57BL/6 mice; 100 μg/kg each, 24 hr) was 0.0554. For the same substance, the “food intake compared with saline” value (Male C57BL/6 mice; 100 μg/kg intraperitoneal after overnight fast, n=10/group) was “significantly decreased food intake”, the “reduction of food intake by 30 μg/kg versus a 100 μg/kg dose of PYY(3-36)” value (“reduction of food intake” for short) (Male C57BL/6 mice) was “at least as powerful” and the “reduction of food intake” value (Male C57BL/6 mice; listed as D-allo-Ile^3 PYY3-36) was “same decrease in food intake”. For the same substance, the “superiority in efficacy over PYY(3-36)” value (Male C57BL/6 mice; [1]) was 3 fold, the “decrease of food intake over the total period 0-4 hours versus native PYY3-36” value (Male Wistar rats; 0-4 hours) was “to a greater extent” and the “reduction of food intake” value (Male Wistar rats) was “at least as powerful”. The “reduction of food intake” value (Male Wistar rats; listed as D-allo-Ile^3 PYY3-36) was “same decrease in food intake”, the “superiority in efficacy over PYY(3-36)” value (Male Wistar rats; [1]) was 3 fold and the “decrease in food intake versus the same quantity of normal human PYY3-36” value (Male Wistar rats; same quantity) was “greater decrease in food intake”.

From US8202836B2, “Modified PYY (3-36) peptides and their effects on feeding behavior” (Imperial Innovations Limited, priority 2005, dated 2012)
